Reference: publication PMC9281440, “In Vivo Distribution and Therapeutic Efficacy of Radioiodine-Labeled pH-Low Insertion Peptide Variant 3 in a Mouse Model of Breast Cancer” (Molecular Imaging, 2022)
Values joined by “and” are separate entries in the source; they are usually repeats but may differ in a detail not shown here. Equal entries are not always repeated. Where two headings read alike, the source gives them in different places. Peptide text beside a SMILES is read from it.

Tests used:
Assay type in all cases: in vivo, mouse
[1] = tested on: MDA-MB-231 tumor-bearing nude mice; assay: Micro-SPECT/CT imaging and distribution of 125I-labeled pHLIPs; settings: MDA-MB-231 xenografts
Method: (§1) Five-week-old female athymic BALB/c nude mice (Shanghai Slaccas Experiment Animal Corp., Shanghai, China) were used in our study. Mouse xenograft models of MDA-MB-231, 4T1, and SK-BR-3 cells were produced by the subcutaneous injection of 5 × 10^6 cells (suspended in 150 μL PBS) into the right axilla of each mouse. The mice were used in subsequent experiments when tumor diameter reached 0.5-0.9 cm. The study protocol was approved by the institutional review board and by the Experimental Animal Center of Ruijin Hospital affiliated to the School of Medicine of Shanghai Jiao Tong University.
(§2) Three days before micro-SPECT/CT imaging, 300 μL of 1% Kl solution was administered to mice by oral gavage once a day, and 0.1% Kl was added into the drinking water to block thyroid gland activity. Mice-bearing MDA-MB-231, 4T1, or SK-BR-3 tumors were intravenously injected with 3.7 MBq of ^125I-WT-pHLIP or ^125I-Var3-pHLIP. Each group contained four mice. The mice were anesthetized by isoflurane inhalation, placed in the prone position, and scanned using a four-head SPECT/CT system (U-SPECT/CT, MI-Lab, Netherlands) and dedicated multipinhole apertures with a diameter of 1.5 mm at 1, 2, 4, 24, and 48 h after injection of ^125I-labeled peptides. CT images were acquired after static SPECT imaging (10 min/frame). The images were reconstructed using U-SPECT REC software and analyzed using PMOD software version 3.9 (Switzerland). Regions of interest (ROIs) were drawn in the tumors and organs, including the brain, heart, liver, lungs, kidneys, intestine, and bladder, at various time points. The radioactivity per gram (ID%/g) in the ROIs was measured to obtain the dynamic tumor-to-background ratio (TBR, muscle tissue was used as the background) and the in vivo distribution and kinetics of ^125I-WT-pHLIP and ^125I-Var3-pHLIP in the xenograft models of BC.

[2] = as above; settings: female, mouse, total radioactivity, 3.7 MBq iv, micro-SPECT/CT ROI, mean ± SD, n = 4; for tissue uptake at 1 h: 1 h pi; for tissue uptake at 2 h: 2 h pi; for tissue uptake at 4 h: 4 h pi; for tissue uptake at 24 h: 24 h pi; for tissue uptake at 48 h: 48 h pi
Method: as §1, §2

[3] = tested on: SK-BR-3 tumor-bearing nude mice; assay: as above
Method: as §1, §2

[4] = BALB/c nude, bladder, MDA-MB-231 tumor-bearing nude mice, read-out: Distribution, Bladder
[5] = BALB/c nude, intestine, MDA-MB-231 tumor-bearing nude mice, read-out: Distribution, Intestine
[6] = BALB/c nude, muscle, MDA-MB-231 tumor-bearing nude mice, read-out: Distribution, Muscle
[7] = BALB/c nude, MDA-MB-231 tumor-bearing nude mice, read-out: Distribution, Tumor
[8] = BALB/c nude, SK-BR-3 tumor-bearing nude mice, read-out: Distribution, Tumor
[9] = athymic BALB/c nude, bladder, SK-BR-3 tumor-bearing nude mice, read-out: Distribution, Bladder
[10] = athymic BALB/c nude, brain, MDA-MB-231 tumor-bearing nude mice, read-out: Distribution, Brain
[11] = athymic BALB/c nude, brain, SK-BR-3 tumor-bearing nude mice, read-out: Distribution, Brain
[12] = athymic BALB/c nude, heart, MDA-MB-231 tumor-bearing nude mice, read-out: Distribution, Heart
[13] = athymic BALB/c nude, heart, SK-BR-3 tumor-bearing nude mice, read-out: Distribution, Heart
[14] = athymic BALB/c nude, intestine, SK-BR-3 tumor-bearing nude mice, read-out: Distribution, Intestine
[15] = athymic BALB/c nude, kidney, MDA-MB-231 tumor-bearing nude mice, read-out: Distribution, Kidney
[16] = athymic BALB/c nude, kidney, SK-BR-3 tumor-bearing nude mice, read-out: Distribution, Kidney
[17] = athymic BALB/c nude, liver, MDA-MB-231 tumor-bearing nude mice, read-out: Distribution, Liver
[18] = athymic BALB/c nude, liver, SK-BR-3 tumor-bearing nude mice, read-out: Distribution, Liver
[19] = athymic BALB/c nude, lung, MDA-MB-231 tumor-bearing nude mice, read-out: Distribution, Lung
[20] = athymic BALB/c nude, lung, SK-BR-3 tumor-bearing nude mice, read-out: Distribution, Lung
[21] = athymic BALB/c nude, muscle, SK-BR-3 tumor-bearing nude mice, read-out: Distribution, Muscle

CC(C)C[C@H](NC(=O)[C@H](Cc1ccc(O)c(I)c1)NC(=O)[C@H](C)NC(=O)[C@H](CCCNC(=N)N)NC(=O)[C@H](Cc1c[nH]c2ccccc12)NC(=O)[C@@H]1CCCN1C(=O)[C@H](CC(N)=O)NC(=O)[C@H](CCC(N)=O)NC(=O)[C@H](CC(=O)O)NC(=O)[C@H](CC(=O)O)NC(=O)[C@H](CS)NC(=O)[C@H](C)N)C(=O)N[C@@H](CC(=O)O)C(=O)N[C@@H](CC(C)C)C(=O)N[C@@H](CC(C)C)C(=O)N[C@@H](Cc1ccccc1)C(=O)N1CCC[C@H]1C(=O)N[C@H](C(=O)N[C@@H](CC(=O)O)C(=O)N[C@H](C(=O)N[C@@H](CC(C)C)C(=O)N[C@@H](CC(C)C)C(=O)N[C@@H](CC(C)C)C(=O)N[C@@H](CC(=O)O)C(=O)N[C@@H](CC(C)C)C(=O)N[C@@H](CC(C)C)C(=O)N[C@@H](Cc1c[nH]c2ccccc12)C(=O)N[C@@H](CCCCN)C(=O)O)[C@@H](C)O)[C@@H](C)O [125I-Var3-pHLIP] (HELM PEPTIDE1{A.C.D.D.Q.N.P.W.R.A.[O=C([C@H](Cc1ccc(O)c(I)c1)N[*:1])[*:2]].L.D.L.L.F.P.T.D.T.L.L.L.D.L.L.W.K}$$$$V2.0; N-terminus and C-terminus assumed)
time after injection at which radioactive count in xenografts peaked [1]: 2 h | tissue uptake at 1 h [2, 4]: 20.6 ± 5.71 %ID/g | tissue uptake at 2 h [2, 4]: 24.8 ± 3.51 %ID/g | tissue uptake at 4 h [2, 4]: 31.6 ± 15.9 %ID/g | tissue uptake at 24 h [2, 4]: 2.14 ± 0.88 %ID/g | tissue uptake at 48 h [2, 4]: 0.45 ± 0.14 %ID/g | tissue uptake at 1 h ([2]; BALB/c nude, brain, MDA-MB-231 tumor-bearing nude mice, read-out: Distribution, Brain): 1.02 ± 0.08 %ID/g | tissue uptake at 1 h [2, 5]: 2.59 ± 0.5 %ID/g | tissue uptake at 2 h [2, 5]: 3.18 ± 0.35 %ID/g | tissue uptake at 4 h [2, 5]: 2.12 ± 0.33 %ID/g | tissue uptake at 24 h [2, 5]: 0.2 ± 0.09 %ID/g | tissue uptake at 48 h [2, 5]: 0.1 ± 0.06 %ID/g | tissue uptake at 1 h [2, 6]: 1.12 ± 0.28 %ID/g | tissue uptake at 2 h [2, 6]: 0.96 ± 0.32 %ID/g | tissue uptake at 4 h [2, 6]: 0.67 ± 0.21 %ID/g | tissue uptake at 24 h [2, 6]: 0.09 ± 0.03 %ID/g | tissue uptake at 48 h [2, 6]: 0.04 ± 0.01 %ID/g | tissue uptake at 1 h [2, 7]: 3.16 ± 0.67 %ID/g | tissue uptake at 2 h [2, 7]: 3.76 ± 0.37 %ID/g | tissue uptake at 4 h [2, 7]: 3.09 ± 0.44 %ID/g | tissue uptake at 24 h [2, 7]: 0.47 ± 0.12 %ID/g | tissue uptake at 48 h [2, 7]: 0.22 ± 0.07 %ID/g | tissue uptake at 2 h [2, 8]: 2.94 ± 0.71 %ID/g | tissue uptake at 4 h [2, 8]: 2.45 ± 0.32 %ID/g | tissue uptake at 24 h [2, 8]: 0.26 ± 0.06 %ID/g | tissue uptake at 48 h [2, 8]: 0.18 ± 0.06 %ID/g | tissue uptake at 1 h [2, 9]: 18.2 ± 4.14 %ID/g | tissue uptake at 2 h [2, 9]: 18.7 ± 15.6 %ID/g | tissue uptake at 4 h [2, 9]: 23.4 ± 6.56 %ID/g | tissue uptake at 24 h [2, 9]: 2.44 ± 2.14 %ID/g | tissue uptake at 48 h [2, 9]: 0.21 ± 0.21 %ID/g | tissue uptake at 2 h [2, 10]: 1.13 ± 0.12 %ID/g | tissue uptake at 4 h [2, 10]: 0.75 ± 0.27 %ID/g | tissue uptake at 24 h [2, 10]: 0.13 ± 0.07 %ID/g | tissue uptake at 48 h [2, 10]: 0.09 ± 0.05 %ID/g | tissue uptake at 1 h [2, 11]: 1.02 ± 0.07 %ID/g | tissue uptake at 2 h [2, 11]: 0.95 ± 0.07 %ID/g | tissue uptake at 4 h [2, 11]: 0.68 ± 0.2 %ID/g | tissue uptake at 24 h [2, 11]: 0.09 ± 0.02 %ID/g | tissue uptake at 48 h [2, 11]: 0.09 ± 0.01 %ID/g | tissue uptake at 1 h [2, 12]: 9.47 ± 1.54 %ID/g | tissue uptake at 2 h [2, 12]: 8.29 ± 0.52 %ID/g | tissue uptake at 4 h [2, 12]: 5.35 ± 0.93 %ID/g | tissue uptake at 24 h [2, 12]: 0.39 ± 0.13 %ID/g | tissue uptake at 48 h [2, 12]: 0.14 ± 0.05 %ID/g | tissue uptake at 1 h [2, 13]: 10.3 ± 0.54 %ID/g | tissue uptake at 2 h [2, 13]: 8.89 ± 0.18 %ID/g | tissue uptake at 4 h [2, 13]: 6.02 ± 1.35 %ID/g | tissue uptake at 24 h [2, 13]: 0.38 ± 0.08 %ID/g | tissue uptake at 48 h [2, 13]: 0.1 ± 0.02 %ID/g | tissue uptake at 1 h [2, 14]: 3.05 ± 0.68 %ID/g | tissue uptake at 2 h [2, 14]: 3.01 ± 0.26 %ID/g | tissue uptake at 4 h [2, 14]: 2.38 ± 0.68 %ID/g | tissue uptake at 24 h [2, 14]: 0.31 ± 0.14 %ID/g | tissue uptake at 48 h [2, 14]: 0.07 ± 0.04 %ID/g | tissue uptake at 1 h [2, 15]: 5.66 ± 2.26 %ID/g | tissue uptake at 2 h [2, 15]: 5.61 ± 0.71 %ID/g | tissue uptake at 4 h [2, 15]: 3.8 ± 0.89 %ID/g | tissue uptake at 24 h [2, 15]: 0.41 ± 0.04 %ID/g | tissue uptake at 48 h [2, 15]: 0.25 ± 0.13 %ID/g | tissue uptake at 1 h [2, 16]: 6.67 ± 1.07 %ID/g | tissue uptake at 2 h [2, 16]: 4.24 ± 0.97 %ID/g | tissue uptake at 4 h [2, 16]: 3.56 ± 0.65 %ID/g | tissue uptake at 24 h [2, 16]: 0.42 ± 0.11 %ID/g | tissue uptake at 48 h [2, 16]: 0.18 ± 0.1 %ID/g | tissue uptake at 1 h [2, 17]: 10.3 ± 1.33 %ID/g | tissue uptake at 2 h [2, 17]: 10.2 ± 0.66 %ID/g | tissue uptake at 4 h [2, 17]: 8.11 ± 1.63 %ID/g | tissue uptake at 24 h [2, 17]: 1 ± 0.54 %ID/g | tissue uptake at 48 h [2, 17]: 0.4 ± 0.22 %ID/g | tissue uptake at 1 h [2, 18]: 11.4 ± 0.87 %ID/g | tissue uptake at 2 h [2, 18]: 10.4 ± 1.6 %ID/g | tissue uptake at 4 h [2, 18]: 11.4 ± 2.75 %ID/g | tissue uptake at 24 h [2, 18]: 0.81 ± 0.2 %ID/g | tissue uptake at 48 h [2, 18]: 0.23 ± 0.02 %ID/g | tissue uptake at 1 h [2, 19]: 9.64 ± 0.8 %ID/g | tissue uptake at 2 h [2, 19]: 9.1 ± 0.61 %ID/g | tissue uptake at 4 h [2, 19]: 6.6 ± 0.88 %ID/g | tissue uptake at 24 h [2, 19]: 0.49 ± 0.22 %ID/g | tissue uptake at 48 h [2, 19]: 0.18 ± 0.05 %ID/g | tissue uptake at 1 h [2, 20]: 9.81 ± 0.82 %ID/g | tissue uptake at 2 h [2, 20]: 9.31 ± 1.03 %ID/g | tissue uptake at 4 h [2, 20]: 6.93 ± 1.24 %ID/g | tissue uptake at 24 h [2, 20]: 0.42 ± 0.12 %ID/g | tissue uptake at 48 h [2, 20]: 0.14 ± 0.05 %ID/g | tissue uptake at 1 h [2, 21]: 1.33 ± 0.3 %ID/g | tissue uptake at 2 h [2, 21]: 1.21 ± 0.26 %ID/g | tissue uptake at 4 h [2, 21]: 0.7 ± 0.12 %ID/g | tissue uptake at 24 h [2, 21]: 0.06 ± 0.02 %ID/g | tissue uptake at 48 h [2, 21]: 0.04 ± 0.02 %ID/g | tissue uptake at 1 h ([2]; athymic BALB/c nude, SK-BR-3 tumor-bearing nude mice, read-out: Distribution, Tumor): 2.68 ± 1.34 %ID/g | Distribution, Tumor ([3]; SK-BR-3 tumor-bearing nude mice, 2 h pi, 3.7 MBq iv, micro-SPECT/CT ROI, mean ± SD, n = 4): 2.93 ± 0.71 %ID/g and 2.93 ± 0.70 %ID/g | time after injection at which radioactive count in xenografts peaked ([3]; SK-BR-3 xenografts): 2 h
